Data published in US12448389B2, “BRM targeting compounds and associated methods of use” (Prelude Therapeutics Incorporated, priority 2020, dated 2025).

Assays:
SMARCA2-HiBiT = target: T1, SMARCA2-HiBiT (Homo sapiens, UniProt P51531); assay: SMARCA2 HiBiT degradation assay in HeLa cells; format: cell-based; settings: 18 hours incubation; for DC50: read-out: HeLa_HiBit-SM2 DC50; for Dmax: HeLa, read-out: HeLa-HiBit-SM2 Dmax (%)
T1 construct: SMARCA2-HiBiT knock-in Hela monoclonal cell (CS302366); host or cells: HeLa monoclonal knock-in line (CRISPR HiBiT knock-in at the endogenous locus, heterozygous)
Procedure, shortened: (§1)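 HeLa monoclonal lines with heterozygous HiBiT knock-in were seeded at 2500 cells/well in EMEM with 10% FBS and treated with compound for 18 h at 37 °C. Remaining tagged protein was measured by Nano-Glo HiBiT lytic luminescence after 30–60 min at RT, and values came from curve fitting.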

SMARCA4-HiBiT = target: T2, SMARCA4-HiBiT (Homo sapiens, UniProt P51532); assay: SMARCA4 HiBiT degradation assay in HeLa cells; format: cell-based; settings: 18 hours incubation; for DC50: read-out: HeLa-HiBit-SM4 DC50; for Dmax: HeLa, read-out: HeLa-HiBit-SM4 Dmax (%)
T2 construct: SMARCA4-HiBiT knock-in Hela monoclonal cell (CS3023226); host or cells: HeLa monoclonal knock-in line (CRISPR HiBiT knock-in at the endogenous locus, heterozygous)
Procedure, shortened: as §1

T2 sequence (P51532 whole entry): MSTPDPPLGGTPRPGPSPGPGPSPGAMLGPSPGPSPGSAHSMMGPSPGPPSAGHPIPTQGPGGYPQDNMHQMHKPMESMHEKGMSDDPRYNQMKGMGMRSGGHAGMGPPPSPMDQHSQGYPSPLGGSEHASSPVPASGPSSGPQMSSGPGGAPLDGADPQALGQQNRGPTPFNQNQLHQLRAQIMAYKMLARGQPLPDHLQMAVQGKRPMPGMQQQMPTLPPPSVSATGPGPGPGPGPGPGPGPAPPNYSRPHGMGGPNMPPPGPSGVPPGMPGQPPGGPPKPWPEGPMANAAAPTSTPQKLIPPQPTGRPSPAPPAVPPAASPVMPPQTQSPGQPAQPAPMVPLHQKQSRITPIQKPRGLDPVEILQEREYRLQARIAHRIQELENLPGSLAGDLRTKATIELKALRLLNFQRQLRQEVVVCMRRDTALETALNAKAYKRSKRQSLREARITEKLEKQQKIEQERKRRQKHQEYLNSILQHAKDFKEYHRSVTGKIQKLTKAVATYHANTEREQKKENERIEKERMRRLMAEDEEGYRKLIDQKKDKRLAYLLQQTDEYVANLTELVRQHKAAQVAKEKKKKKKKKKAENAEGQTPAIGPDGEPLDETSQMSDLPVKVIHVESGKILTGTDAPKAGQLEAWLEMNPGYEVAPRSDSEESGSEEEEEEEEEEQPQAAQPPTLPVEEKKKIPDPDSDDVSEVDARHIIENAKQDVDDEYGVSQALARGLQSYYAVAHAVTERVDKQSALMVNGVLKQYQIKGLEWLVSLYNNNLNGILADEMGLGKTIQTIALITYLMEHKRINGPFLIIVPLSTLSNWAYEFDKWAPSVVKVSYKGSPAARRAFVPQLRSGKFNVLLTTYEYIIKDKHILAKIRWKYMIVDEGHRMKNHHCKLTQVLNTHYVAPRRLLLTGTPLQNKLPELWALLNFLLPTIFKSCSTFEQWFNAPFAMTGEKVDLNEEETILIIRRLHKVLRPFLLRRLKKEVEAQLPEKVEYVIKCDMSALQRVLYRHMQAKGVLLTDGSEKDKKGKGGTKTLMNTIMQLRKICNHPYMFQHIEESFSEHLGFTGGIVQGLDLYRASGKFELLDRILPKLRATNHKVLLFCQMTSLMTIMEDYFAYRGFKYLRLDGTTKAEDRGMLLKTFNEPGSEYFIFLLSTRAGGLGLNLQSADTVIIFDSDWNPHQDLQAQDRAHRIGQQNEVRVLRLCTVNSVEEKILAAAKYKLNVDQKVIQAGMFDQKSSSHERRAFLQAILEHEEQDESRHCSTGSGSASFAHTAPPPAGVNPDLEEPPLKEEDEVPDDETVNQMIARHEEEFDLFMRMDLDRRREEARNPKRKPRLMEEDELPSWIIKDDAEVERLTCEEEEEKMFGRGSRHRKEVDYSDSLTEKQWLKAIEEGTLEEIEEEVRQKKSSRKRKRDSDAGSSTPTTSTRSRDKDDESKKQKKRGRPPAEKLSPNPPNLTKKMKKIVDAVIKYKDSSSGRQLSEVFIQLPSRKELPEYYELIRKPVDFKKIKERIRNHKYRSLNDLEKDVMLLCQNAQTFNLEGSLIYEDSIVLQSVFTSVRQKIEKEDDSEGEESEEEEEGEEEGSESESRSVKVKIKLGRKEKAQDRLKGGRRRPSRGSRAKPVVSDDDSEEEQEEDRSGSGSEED
T1 sequence (P51531 whole entry): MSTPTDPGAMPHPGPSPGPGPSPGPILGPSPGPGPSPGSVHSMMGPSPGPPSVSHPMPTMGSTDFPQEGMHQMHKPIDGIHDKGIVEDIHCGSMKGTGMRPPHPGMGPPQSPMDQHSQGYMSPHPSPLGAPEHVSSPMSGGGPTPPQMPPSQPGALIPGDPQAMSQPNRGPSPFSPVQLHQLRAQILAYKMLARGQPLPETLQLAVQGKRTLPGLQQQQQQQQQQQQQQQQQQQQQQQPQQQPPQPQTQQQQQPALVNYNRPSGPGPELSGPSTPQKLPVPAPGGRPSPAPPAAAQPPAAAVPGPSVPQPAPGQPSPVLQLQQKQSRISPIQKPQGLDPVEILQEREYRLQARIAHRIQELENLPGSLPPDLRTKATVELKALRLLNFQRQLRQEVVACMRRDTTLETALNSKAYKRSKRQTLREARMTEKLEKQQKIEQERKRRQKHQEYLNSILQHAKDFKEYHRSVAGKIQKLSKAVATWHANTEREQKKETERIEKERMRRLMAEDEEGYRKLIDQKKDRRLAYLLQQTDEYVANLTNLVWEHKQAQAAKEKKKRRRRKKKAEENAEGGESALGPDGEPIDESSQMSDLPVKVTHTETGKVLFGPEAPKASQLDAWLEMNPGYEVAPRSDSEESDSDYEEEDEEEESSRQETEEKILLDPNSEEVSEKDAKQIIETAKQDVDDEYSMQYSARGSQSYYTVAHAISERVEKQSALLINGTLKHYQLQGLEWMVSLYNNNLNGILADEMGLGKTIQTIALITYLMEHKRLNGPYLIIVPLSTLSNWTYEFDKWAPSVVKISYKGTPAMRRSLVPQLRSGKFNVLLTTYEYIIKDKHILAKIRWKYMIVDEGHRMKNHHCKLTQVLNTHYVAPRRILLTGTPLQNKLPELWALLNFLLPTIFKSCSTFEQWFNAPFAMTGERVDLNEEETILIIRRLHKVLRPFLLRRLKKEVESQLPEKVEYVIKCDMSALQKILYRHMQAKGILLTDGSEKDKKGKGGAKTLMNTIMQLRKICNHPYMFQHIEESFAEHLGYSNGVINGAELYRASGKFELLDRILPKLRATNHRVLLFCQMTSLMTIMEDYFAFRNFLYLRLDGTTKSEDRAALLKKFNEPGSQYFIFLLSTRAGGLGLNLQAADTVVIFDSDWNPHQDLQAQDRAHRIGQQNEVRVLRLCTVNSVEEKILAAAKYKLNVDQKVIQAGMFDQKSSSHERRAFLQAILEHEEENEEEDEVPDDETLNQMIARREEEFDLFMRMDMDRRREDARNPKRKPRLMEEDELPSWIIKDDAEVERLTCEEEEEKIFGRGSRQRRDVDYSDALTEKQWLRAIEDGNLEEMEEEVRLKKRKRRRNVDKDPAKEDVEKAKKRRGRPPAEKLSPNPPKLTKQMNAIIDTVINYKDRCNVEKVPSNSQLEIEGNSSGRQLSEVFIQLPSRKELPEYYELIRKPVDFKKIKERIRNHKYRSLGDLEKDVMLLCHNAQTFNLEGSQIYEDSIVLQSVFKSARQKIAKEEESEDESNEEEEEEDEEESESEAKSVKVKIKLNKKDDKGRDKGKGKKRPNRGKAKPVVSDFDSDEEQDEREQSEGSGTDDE

SMILES	DC50 (SMARCA2-HiBiT) [nM]	Dmax (SMARCA2-HiBiT) [%]	DC50 (SMARCA4-HiBiT) [nM]	Dmax (SMARCA4-HiBiT) [%]
O=C1CCC(N2Cc3ccc(N4CCC(CN5CCN(C(=O)N6CCN7c8cc(-c9ccccc9O)nnc8NC[C@H]7C6)C(C(F)(F)F)C5)CC4)cc3C2=O)C(=O)N1 (stereo partly drawn) [Example 100, 3-(6-(4-((4-((S)-2-(2-hydroxyphenyl)-6,6a,7,8,9,10-hexahydro-5H-pyrazino[1′,2′:4,5]pyrazino[2,3-c]pyridazine-8-carbonyl)-3-(trifluoromethyl)piperazin-1-yl)methyl)piperidin-1-yl)-1-oxoisoindolin-2-yl)piperidine-2,6-dione]	< 10	75 to 85	10 to 100	75 to 85
CC1CN(CC2CCN(C(=O)N3CCN4c5cc(-c6ccccc6O)nnc5NC[C@H]4C3)CC2)CCN1c1ccc2c(c1)C(=O)N(C1CCC(=O)NC1=O)C2=O (stereo partly drawn) [Example 272, 2-(2,6-dioxopiperidin-3-yl)-5-(4-((1-((S)-2-(2-hydroxyphenyl)-6,6a,7,8,9,10-hexahydro-5H-pyrazino[1′,2′:4,5]pyrazino[2,3-c]pyridazine-8-carbonyl)piperidin-4-yl)methyl)-2-methylpiperazin-1-yl)isoindoline-1,3-dione]	< 10	> 85	10 to 100	75 to 85
C[C@@H]1CN(CC2CCN(c3ccc4c(c3)C(=O)N(C3CCC(=O)NC3=O)C4)CC2)CCN1C(=O)N1CCN2c3cc(-c4ccccc4O)nnc3NC[C@H]2C1 (stereo partly drawn) [Example 114, 3-(6-(4-(((R)-4-((S)-2-(2-hydroxyphenyl)-6,6a,7,8,9,10-hexahydro-5H-pyrazino[1′,2′:4,5]pyrazino[2,3-c]pyridazine-8-carbonyl)-3-methylpiperazin-1-yl)methyl)piperidin-1-yl)-1-oxoisoindolin-2-yl)piperidine-2,6-dione]	< 10	> 85	< 10	75 to 85
O=C1CCC(N2Cc3cc(N4CC(CN5CCC(CN6CCN7c8cc(-c9ccccc9O)nnc8NC[C@H]7C6)CC5)C4)ccc3C2=O)C(=O)N1 (stereo partly drawn) [Example 230, 3-(5-(3-((4-(((S)-2-(2-hydroxyphenyl)-5,6,6a,7,9,10-hexahydro-8H-pyrazino[1′,2′:4,5]pyrazino[2,3-c]pyridazin-8-yl)methyl)piperidin-1-yl)methyl)azetidin-1-yl)-1-oxoisoindolin-2-yl)piperidine-2,6-dione]	< 10	> 85	< 10	> 85
O=C1CCC(N2C(=O)c3ccc(N4CCC(CN5CC6CC6(CN6CCN7c8cc(-c9ccccc9O)nnc8NC[C@H]7C6)C5)CC4)cc3C2=O)C(=O)N1 (stereo partly drawn) [Example 172, 2-(2,6-dioxopiperidin-3-yl)-5-[4-[[1-[[(10S)-4-(2-hydroxyphenyl)-1,5,6,8,12-pentazatricyclo[8.4.0.02,7]tetradeca-2,4,6-trien-12-yl]methyl]-3-azabicyclo[3.1.0]hexan-3-yl]methyl]piperidin-1-yl]isoindole-1,3-dione]	< 10	75 to 85	< 10	50 to 75
C[C@@H]1C[C@H](CN2CCC(CN3CCN4c5cc(-c6ccccc6O)nnc5NC[C@H]4C3)CC2)CCN1c1cc2c(cc1F)C(=O)N(C1CCC(=O)NC1=O)C2=O (stereo partly drawn) [Example 174, 2-(2,6-dioxopiperidin-3-yl)-5-fluoro-6-[(2R,4R)-4-[[4-[[(10S)-4-(2-hydroxyphenyl)-1,5,6,8,12-pentazatricyclo[8.4.0.02,7]tetradeca-2,4,6-trien-12-yl]methyl]piperidin-1-yl]methyl]-2-methylpiperidin-1-yl] isoindole-1,3-dione]	< 10	> 85	< 10	> 85
O=C1CCC(N2C(=O)c3ccc(N4CCC(F)(CN5C[C@@H]6[C@@H](CN7CCN8c9cc(-c%10ccccc%10O)nnc9NC[C@H]8C7)[C@@H]6C5)CC4)cc3C2=O)C(=O)N1 (stereo partly drawn) [Example 149, 2-(2,6-dioxopiperidin-3-yl)-5-(4-fluoro-4-(((1R,5S,6s)-6-(((S)-2-(2-hydroxyphenyl)-5,6,6a,7,9,10-hexahydro-8H-pyrazino[1′,2′:4,5]pyrazino[2,3-c]pyridazin-8-yl)methyl)-3-azabicyclo[3.1.0]hexan-3-yl)methyl)piperidin-1-yl)isoindoline-1,3-dione]	< 10	50 to 75	10 to 100	50 to 75
O=C1CCC(N2C(=O)c3ccc(N4C[C@@H]5CN(C6CCC(C(=O)N7CCN8c9cc(-c%10ccccc%10O)nnc9NC[C@H]8C7)CC6)C[C@H]5C4)cc3C2=O)C(=O)N1 (stereo partly drawn) [Example 98, 2-(2,6-dioxopiperidin-3-yl)-5-((3aS,6aS)-5-(4-((S)-2-(2-hydroxyphenyl)-6,6a,7,8,9,10-hexahydro-5H-pyrazino[1′,2′:4,5]pyrazino[2,3-c]pyridazine-8-carbonyl)cyclohexyl)hexahydropyrrolo[3,4-c]pyrrol-2(1H)-yl) isoindoline-1,3-dione]	< 10	75 to 85	< 10	> 85
O=C1CCC(N2Cc3cc(OCCN4CCC(CN5CCN6c7cc(-c8ccccc8O)nnc7NC[C@H]6C5)CC4)ccc3C2=O)C(=O)N1 (stereo partly drawn) [Example 207, 3-(5-(2-(4-(((S)-2-(2-hydroxyphenyl)-5,6,6a,7,9,10-hexahydro-8H-pyrazino[1′,2′:4,5]pyrazino[2,3-c]pyridazin-8-yl)methyl)piperidin-1-yl)ethoxy)-1-oxoisoindolin-2-yl)piperidine-2,6-dione]	< 10	50 to 75	10 to 100	≤ 50
O=C1CCC(N2C(=O)c3ccc(N4CCN(CC5CCC(CN6CCN7c8cc(-c9ccccc9O)nnc8NC[C@H]7C6)CC5)CC4)cc3C2=O)C(=O)N1 (stereo partly drawn) [Example 168, 2-(2,6-dioxopiperidin-3-yl)-5-(4-((4-(((S)-2-(2-hydroxyphenyl)-5,6,6a,7,9,10-hexahydro-8H-pyrazino[1′,2′:4,5]pyrazino[2,3-c]pyridazin-8-yl)methyl)cyclohexyl)methyl)piperazin-1-yl)isoindoline-1,3-dione]	< 10	> 85	< 10	75 to 85
CC1CN(CC2CCN(c3ccc4c(c3)C(=O)N(C3CCC(=O)NC3=O)C4)CC2)CC(C)N1C(=O)N1CCN2c3cc(-c4ccccc4O)nnc3NC[C@H]2C1 (stereo partly drawn) [Example 266, 3-(6-(4-((4-((S)-2-(2-hydroxyphenyl)-6,6a,7,8,9,10-hexahydro-5H-pyrazino[1′,2′:4,5]pyrazino[2,3-c]pyridazine-8-carbonyl)-3,5-dimethylpiperazin-1-yl)methyl)piperidin-1-yl)-1-oxoisoindolin-2-yl)piperidine-2,6-dione]	< 10	> 85	< 10	> 85
O=C1CCC(N2C(=O)c3cccc(NCCCN4CCC(N5CCN6c7cc(-c8ccccc8O)nnc7NC[C@H]6C5)CC4)c3C2=O)C(=O)N1 (stereo partly drawn) [Example 70, 2-(2,6-dioxopiperidin-3-yl)-4-((3-(4-((S)-2-(2-hydroxyphenyl)-5,6,6a,7,9,10-hexahydro-8H-pyrazino[1′,2′:4,5]pyrazino[2,3-c]pyridazin-8-yl)piperidin-1-yl)propyl)amino)isoindoline-1,3-dione]	< 10	> 85	< 10	> 85
CC(CN1CCN2c3cc(-c4ccccc4O)nnc3NC[C@H]2C1)C1CCN(CC2CCN(c3ccc4c(c3)C(=O)N(C3CCC(=O)NC3=O)C4=O)CC2)CC1 (stereo partly drawn) [Example 249, 2-(2,6-dioxopiperidin-3-yl)-5-(4-((4-(1-((S)-2-(2-hydroxyphenyl)-5,6,6a,7,9,10-hexahydro-8H-pyrazino[1′,2′:4,5]pyrazino[2,3-c]pyridazin-8-yl)propan-2-yl)piperidin-1-yl)methyl)piperidin-1-yl)isoindoline-1,3-dione]	< 10	> 85	< 10	> 85
O=C1CCC(N2Cc3ccc(N4CCC(CN5CCC(OC(=O)N6CCN7c8cc(-c9ccccc9O)nnc8NC[C@H]7C6)CC5)CC4)cc3C2=O)C(=O)N1 (stereo partly drawn) [Example 85, l-((l-(2-(2,6-dioxopiperidin-3-yl)-3-oxoisoindolin-5-yl)piperidin-4-yl)methyl)piperidin-4-yl (6aS)-2-(2-hydroxyphenyl)-5,6,6a,7,9,10-hexahydro-8H-pyrazino[1′,2′:4,5]pyrazino[2,3-c]pyridazine-8-carboxylate]	< 10	> 85	< 10	75 to 85
O=C1CCC(N2Cc3cc(CN4CCC(CCc5cnc(N6CCN7c8cc(-c9ccccc9O)nnc8NC[C@H]7C6)nc5)CC4)ccc3C2=O)C(=O)N1 (stereo partly drawn) [Example 64, 3-(5-((4-(2-(2-((S)-2-(2-hydroxyphenyl)-5,6,6a,7,9,10-hexahydro-8H-pyrazino[1′,2′:4,5]pyrazino[2,3-c]pyridazin-8-yl)pyrimidin-5-yl)ethyl)piperidin-1-yl)methyl)-1-oxoisoindolin-2-yl)piperidine-2,6-dione]	< 10	> 85	< 10	75 to 85
CC(COc1ccc2c(c1)CN([C@@H]1CCC(=O)NC1=O)C2=O)N1CCC(N2CCN3c4cc(-c5ccccc5O)nnc4NC[C@H]3C2)CC1 (stereo partly drawn) [Example 215, (3R)-3-(5-(2-(4-((S)-2-(2-hydroxyphenyl)-5,6,6a,7,9,10-hexahydro-8H-pyrazino[1′,2′:4,5]pyrazino[2,3-c]pyridazin-8-yl)piperidin-1-yl)propoxy)-1-oxoisoindolin-2-yl)piperidine-2,6-dione]	< 10	50 to 75	10 to 100	50 to 75
